Data reported in patent publication US12691101B2, “Compound and method for preventing or treating of respiratory diseases comprising the same as an active ingredient” (YONSEI UNIVERSITY, UNIVERSITY - INDUSTRY FOUNDATION (UIF), priority 2019, dated 2026).

Target: T1, human wild-type (WT)-pendrin (Homo sapiens, UniProt O43511)
T1 construct: expressed in transfected cells
T1 sequence (O43511 1-780): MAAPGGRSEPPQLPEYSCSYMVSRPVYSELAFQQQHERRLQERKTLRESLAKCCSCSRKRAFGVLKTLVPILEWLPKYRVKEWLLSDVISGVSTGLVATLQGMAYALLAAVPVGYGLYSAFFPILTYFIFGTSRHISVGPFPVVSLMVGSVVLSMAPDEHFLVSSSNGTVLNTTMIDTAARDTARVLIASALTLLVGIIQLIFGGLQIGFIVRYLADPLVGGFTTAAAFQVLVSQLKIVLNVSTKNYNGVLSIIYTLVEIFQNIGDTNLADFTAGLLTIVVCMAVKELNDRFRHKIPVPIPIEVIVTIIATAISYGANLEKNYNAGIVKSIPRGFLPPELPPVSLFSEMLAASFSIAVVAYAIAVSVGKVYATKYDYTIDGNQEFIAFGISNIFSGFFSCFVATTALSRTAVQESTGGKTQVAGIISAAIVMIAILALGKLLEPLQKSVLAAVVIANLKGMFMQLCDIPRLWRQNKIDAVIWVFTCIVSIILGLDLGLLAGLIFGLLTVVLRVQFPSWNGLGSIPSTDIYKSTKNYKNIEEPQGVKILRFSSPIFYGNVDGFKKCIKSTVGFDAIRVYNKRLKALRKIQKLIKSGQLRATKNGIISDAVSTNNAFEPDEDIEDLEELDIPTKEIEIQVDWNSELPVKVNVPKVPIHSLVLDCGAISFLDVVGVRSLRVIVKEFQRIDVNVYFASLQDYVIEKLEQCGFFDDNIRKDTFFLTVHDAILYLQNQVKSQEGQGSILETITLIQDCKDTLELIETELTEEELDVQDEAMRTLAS
Assay: Pendrin-mediated Cl^−/I^− exchange activity, YFP fluorescence in CHO-K1 cells
Format: cell-based
Settings: for inhibition at 30 µM: CHO-K1, 30 μM, read-out: Pendrin inhibitory activity at 30 μM (%); for IC50: compounds showing pendrin inhibitory activity of 50% or more at 30 μM, read-out: IC50
Experimental: Chinese hamster ovary (CHO)-K1 cells were maintained in a DMEM medium containing 10% fetal bovine serum (FBS), 100 units/ml penicillin and 100 100 μg/ml streptomycin. CHO-K1 cells were stably transfected with pcDNA3.1 encoding halide sensor YFP-H148Q/I152L/F46L and human wild-type (WT)-pendrin. For distribution of primary culture of human nasal cavity epithelium (HNE) cells, passage-2 cells were seeded into transwell-transparent culture inserts with a pore size of 0.45 μm (Costar Co., Cambridge, MA) at a density of 2×10^5 cells/cm^2. The cells were maintained in a 1:1 mixture of Dulbecco's modified Eagle's medium (Lonza, Walkersville, MD) and bronchial epithelial growth medium (Lonza) supplemented with the following growth factors according to the manufacturer's instructions. After immersing the cells for the first 7 days, they were exposed to the apical air interface for the remainder of the culture period. After establishment of the air-liquid interface, the cells were used between 14 and 21 days. At all stages of culture, the cells were maintained at 37° C. under 5% CO2 in an air incubator.
CHO-K1 cells expressing human WT pendrin and YFP-F46L/H148Q/I152L were plated on a 96-well microplate at a density of 2×10^4 cells per well and cultured for 48 hours. Each well of the cell cultured 96-well plate was washed with PBS of 200 μL twice and was filled with HEPES buffer solution of 50 μL, respectively. […] After culturing at 37° C. for 10 minutes, the 96-well plate was positioned on FLUOstar Omega microplate reader (BMG Labtech, Ortenberg, Germany) for fluorescence analysis. By continuously (400 ms per point) recording fluorescence for 1 second (base line), each well was individually analyzed for pendrin-mediated I^− inflow, and then at 1 second, 50 μL of NaI-substituted HEPES buffer solution (NaI replacing NaCl) was added using a liquid injector and the YFP fluorescence was recorded for 5 seconds. The initial iodide inflow rate was determined from the initial slope of fluorescence by nonlinear regression, after injection the iodide (See FIG. 1).
For measurement of Cl^−/I^− exchange activity, YFP fluorescence was measured in pendrin and halide sensor YFP expressing CHO-K1 cells. Each well of the cell cultured 96-well plate was washed with PBS of 200 μL twice, and was filled with HEPES buffer solution (140 mM NaCl, 5 mM KCl, 1 mM MgCl2, 1 mM CaCl2, 10 mM glucose and 10 mM HEPES (pH 7.4)), respectively. […] After culturing at 37° C. for 10 minutes, the 96-well plate was positioned on FLUOstar Omega microplate reader (BMG Labtech, Ortenberg, Germany) for fluorescence analysis.
By continuously (400 ms per point) recording fluorescence for 1 second (base line), each well was individually analyzed for pendrin-mediated I^− inflow, and then at 1 second, 50 μL of NaI-substituted HEPES buffer solution (140 mM NaI, 5 mM KCl, 1 mM MgCl2, 1 mM CaCl2, 10 mM glucose and 10 mM HEPES (pH 7.4)) was added using a liquid injector and the YFP fluorescence was recorded for 5 seconds. The initial iodide inflow rate was determined from the initial slope of fluorescence by nonlinear regression, after injection the iodide.

Structure (SMILES) | inhibition at 30 µM [%] | IC50 [µM]
O=C1OC(c2ccc(C(F)(F)F)cc2)=NC1=Cc1cccs1 [F1, 4-(thiophen-2-ylmethylene)-2-(4-(trifluoromethyl)phenyl)oxazol-5 (4H)-one] | 2.6 | 
CC(C)(C)c1ccc(C2=NC(=Cc3cncs3)C(=O)O2)cc1 [F2, 2-(4-(tert-butyl)phenyl)-4-(thiazol-5-ylmethylene)oxazol-5(4H)-one] | 57.5 | 26.9 ± 2.95
Cc1[nH]c2ccccc2c1C=C1N=C(c2ccc(C(C)(C)C)cc2)OC1=O [F3, 2-(4-(tert-butyl)phenyl)-4-((2-methyl-1H-indol-3-yl1)methylene)oxazol-5(4H)-one] | 4.3 | 
CC(C)(C)OC(=O)n1cc(C=C2N=C(c3ccc(C(C)(C)C)cc3)OC2=O)c2ccccc21 [F4, tert-butyl 3-((2-(4-(tert-butyl)phenyl)-5-oxooxazol-4(5H)-ylidene)methyl)-1H-indol-1-carboxylate] | 2.6 | 
N#Cc1ccc(C2=NC(=Cc3cccs3)C(=O)O2)cc1 [F5, 4-(5-Oxo-4-(thiophen-2-ylmethylene)-4,5-dihydrooxazol-2-yl)benzonitrile] | 3.5 | 
Cn1cccc1C=C1N=C(c2ccc(C(C)(C)C)cc2)OC1=O [F6, 2-(4-(tert-butyl)phenyl)-4-((1-methyl-1H-pyrrol-2-yl)methylene)oxazol-5 (4H)-one] | 3.7 | 
COC(=O)c1ccc(C2=NC(=Cc3cccs3)C(=O)O2)cc1 [F7, Methyl 4-(5-oxo-4-(thiophen-2-ylmethylene)-4,5-dihydrooxazol-2-yl)benzoate] | 2.8 | 
Cc1ncsc1C=C1N=C(c2ccc(C(C)(C)C)cc2)OC1=O [F8, 2-(4-(tert-butyl)phenyl)-4-((4-methylthiazol-5-yl)methylene)oxazol-5 (4H)-one] | 72.5 | 20.5 ± 1.69
CC(C)(C)c1ccc(C2=NC(=Cc3ccsc3)C(=O)O2)cc1 [F9, 2-(4-(tert-butyl)phenyl)-4-(thiophen-3-ylmethylene)oxazol-5 (4H)-one] | 52.5 | 28.7 ± 2.25
CC(C)(C)c1ccc(C2=NC(=Cc3cc4ccccc4s3)C(=O)O2)cc1 [F11, 4-(Benzo[b]thiophen-2-ylmethylene)-2-(4-(tert-butyl)phenyl)oxazol-5 (4H)-one] | 3.6 | 
CC(C)c1ccc(C2=NC(=Cc3ccc[nH]3)C(=O)O2)cc1 [F12, 4-((1H-pyrrol-2-yl)methylene)-2-(4-isopropylphenyl)oxazol-5(4H)-one] | 100 | 1 ± 0.15
CC(C)(C)c1ccc(C2=NC(=Cc3ccnc4ccccc34)C(=O)O2)cc1 [F13, 2-(4-(tert-butyl)phenyl)-4-(quinolin-4-ylmethylene)oxazol-5 (4H)-one] | 3.8 | 
CC(C)Cc1ccc(C2=NC(=Cc3cccs3)C(=O)O2)cc1 [F14, 2-(4-Isobutylphenyl)-4-(thiophen-2-ylmethylene)oxazol-5 (4H)-one] | 33.1 | 
CC(C)Cc1ccc(C2=NC(=Cc3ccsc3)C(=O)O2)cc1 [F15, 2-(4-Isobutylphenyl)-4-(thiophen-3-ylmethylene)oxazol-5 (4H)-one] | 3.8 | 
CC(C)c1ccc(C2=NC(=Cc3csc4ccccc34)C(=O)O2)cc1 [F16, 4-(Benzo[b]thiophen-3-ylmethylene)-2-(4-isopropylphenyl)oxazol-5(4H)-one] | 3.1 | 
O=C1OC(c2ccc(C(F)(F)F)cc2)=NC1=Cc1ccc[nH]1 [F17, 4-((1H-pyrrol-2-yl)methylene)-2-(4-(trifluoromethyl)phenyl)oxazol-5(4H)-one] | 6.9 | 

Structure (SMILES) | inhibition at 30 µM [%] | IC50 [µM]
O=C1OC(c2ccc(C(F)(F)F)cc2)=NC1=Cc1ccsc1 [F18, 4-(Thiophen-3-ylmethylene)-2-(4-(trifluoromethyl)phenyl)oxazol-5(4H)-one] | 3.4 | 
CC(C)Cc1ccc(C2=NC(=Cc3ccco3)C(=O)O2)cc1 [F19, 4-(Furan-2-ylmethylene)-2-(4-isobutylphenyl)oxazol-5 (4H)-one] | 54.8 | 20.1 ± 2.46
CC(C)Cc1ccc(C2=NC(=Cc3ccc[nH]3)C(=O)O2)cc1 [F20, 4-((1H-pyrrol-2-yl)methylene)-2-(4-isobutylphenyl)oxazol-5 (4H)-one] | 82.9 | 2.8 ± 0.26
CC(C)Cc1ccc(C2=NC(=Cc3csc4ccccc34)C(=O)O2)cc1 [F21, 4-(Benzo[b]thiophen-3-ylmethylene)-2-(4-isobutylphenyl)oxazol-5(4H)-one] | 2.9 | 
Cc1ncsc1C=C1N=C(c2ccc(Br)cc2)OC1=O [F22, 2-(4-Bromophenyl)-4-((4-methylthiazol-5-yl)methylene)oxazol-5(4H)-one] | 2.4 | 
O=C1OC(C2CCCCC2)=NC1=Cc1cccs1 [F23, 2-Cyclohexyl-4-(thiophen-2-ylmethylene)oxazol-5 (4H)-one] | 2.1 | 
Cc1ncsc1C=C1N=C(c2ccc(-c3ccccc3)cc2)OC1=O [F24, 2-([1,1′-biphenyl]-4-yl)-4-((4-methylthiazol-5-yl)methylene)oxazol-5 (4H)-one] | 3.6 | 
O=C1OC(Cc2ccc(-c3ccccc3)cc2)=NC1=Cc1ccc[nH]1 [F25, 4-((1H-pyrrol-2-yl)methylene)-2-([1,1′-biphenyl]-4-ylmethyl)oxazol-5(4H)-one] | 3.8 | 
CCCCc1ccc(C2=NC(=Cc3ccc[nH]3)C(=O)O2)cc1 [F26, 4-((1H-pyrrol-2-yl)methylene)-2-(4-butylphenyl)oxazol-5(4H)-one] | 69.9 | 12.8 ± 1.55
CC(C)(C)c1ccc(C2=NC(=Cc3cccn3-c3ccccc3)C(=O)O2)cc1 [F27, 2-(4-(tert-butyl)phenyl)-4-((1-phenyl-1H-pyrrol-2-yl)methylene)oxazol-5 (4H)-one] | 2.8 | 
O=C1OC(Cc2ccc(-c3ccccc3)cc2)=NC1=Cc1cccs1 [F28, 2-([1,1′-biphenyl]-4-ylmethyl)-4-(thiophen-2-ylmethylene)oxazol-5 (4H)-one] | 2.2 | 
O=C1OC(c2ccc3c(c2)CCC3)=NC1=Cc1cccs1 [F29, 2-(2,3-dihydro-1H-indene-5-yl)-4-(thiophen-2-ylmethylene)oxazol-5 (4H)-one] | 3.3 | 
O=C1OC(c2cccc3ccccc23)=NC1=Cc1ccc[nH]1 [F30, 4-((1H-pyrrol-2-yl)methylene)-2-(naphthalen-1-yl)oxazol-5(4H)-one] | 3.9 | 
COC(=O)c1ccc(C2=NC(=Cc3ccco3)C(=O)O2)cc1 [F31, Methyl 4-(4-(furan-2-ylmethylene)-5-oxo-4,5-dihydrooxazol-2-yl)benzoate] | 4.2 | 
COC(=O)c1ccc(C2=NC(=Cc3ccsc3)C(=O)O2)cc1 [F32, Methyl 4-(5-oxo-4-(thiophen-3-ylmethylene)-4,5-dihydrooxazol-2-yl)benzoate] | 3.7 | 
